The source of these data is PMC4720136 (Journal of the American Chemical Society, 2015).

This test addresses EncM (Streptomyces maritimus, UniProt Q9KHK2). Description: stopped-flow flavin reduction at […] nm, hyperbolic fit of kobs. In kind it is biochemical. The note with it: read-out: apparent Kd; EncM-Flox (oxidized, inactive flavin form), anaerobic, 4 °C, 0.1 M Tris-H2SO4 pH 7.5, 10% glycerol.

Each structure is given as a SMILES string.

As for `NC(=O)C1=CN([C@@H]2O[C@H](COP(=O)(O)OP(=O)(O)OC[C@H]3O[C@@H](n4cnc5c(N)ncnc54)[C@H](O)[C@@H]3O)[C@@H](O)[C@H]2O)C=CC1` [NADH], the Kd turned out to be 9.3 ± 0.3 mM. As for `NC(=O)C1=CN([C@@H]2O[C@H](COP(=O)(O)OP(=O)(O)OC[C@H]3O[C@@H](n4cnc5c(N)ncnc54)[C@H](OP(=O)(O)O)[C@@H]3O)[C@@H](O)[C@H]2O)C=CC1` [NADPH], the Kd is 0.26 ± 0.01 mM.
